13 molecules from ChEMBL document CHEMBL2401643, “The discovery of potent selective NPY Y(2) antagonists” (Bioorg Med Chem Lett, 2013) can be followed below.

Activity calls are given as the source filed them. The rule behind the calls is not given here.

Data set [1] in a line: Metabolic stability in human liver microsomes assessed as compound remaining after 15 mins. In kind it is ADME, Microsome. Particulars: read-out: Stability.
Data set [2] can be described thus: Metabolic stability in rat liver microsomes assessed as compound remaining after 15 mins. The class given is ADME, Microsome. Particulars: read-out: Stability. For orientation: Liver microsomes are a subcellular fraction often used to study metabolism.
The target of data set [3] is T1, Neuropeptide Y receptor type 2 (Homo sapiens, UniProt P49146).
T1 sequence (P49146 whole entry): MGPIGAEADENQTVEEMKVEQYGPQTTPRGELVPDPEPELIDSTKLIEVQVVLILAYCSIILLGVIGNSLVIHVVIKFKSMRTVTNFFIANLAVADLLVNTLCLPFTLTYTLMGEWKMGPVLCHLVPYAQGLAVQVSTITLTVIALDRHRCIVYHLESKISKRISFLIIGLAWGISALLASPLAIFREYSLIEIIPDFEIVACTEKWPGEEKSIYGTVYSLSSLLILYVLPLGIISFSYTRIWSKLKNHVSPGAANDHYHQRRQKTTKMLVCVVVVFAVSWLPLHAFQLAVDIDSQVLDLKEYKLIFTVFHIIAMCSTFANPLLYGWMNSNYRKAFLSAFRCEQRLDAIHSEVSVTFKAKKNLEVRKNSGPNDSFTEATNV
The data set is described as follows: (§1) Displacement of [125I]PYY from NPY-Y2 receptor in human KAN-TS cell membranes after 1 hr by scintillation counting analysis. A general note: In a radioligand displacement assay an active substance lowers the binding of a labelled ligand.

Data set [4] addresses T2, Microsomal triglyceride transfer protein large subunit (Homo sapiens, UniProt P55157).
T2 sequence (P55157 whole entry): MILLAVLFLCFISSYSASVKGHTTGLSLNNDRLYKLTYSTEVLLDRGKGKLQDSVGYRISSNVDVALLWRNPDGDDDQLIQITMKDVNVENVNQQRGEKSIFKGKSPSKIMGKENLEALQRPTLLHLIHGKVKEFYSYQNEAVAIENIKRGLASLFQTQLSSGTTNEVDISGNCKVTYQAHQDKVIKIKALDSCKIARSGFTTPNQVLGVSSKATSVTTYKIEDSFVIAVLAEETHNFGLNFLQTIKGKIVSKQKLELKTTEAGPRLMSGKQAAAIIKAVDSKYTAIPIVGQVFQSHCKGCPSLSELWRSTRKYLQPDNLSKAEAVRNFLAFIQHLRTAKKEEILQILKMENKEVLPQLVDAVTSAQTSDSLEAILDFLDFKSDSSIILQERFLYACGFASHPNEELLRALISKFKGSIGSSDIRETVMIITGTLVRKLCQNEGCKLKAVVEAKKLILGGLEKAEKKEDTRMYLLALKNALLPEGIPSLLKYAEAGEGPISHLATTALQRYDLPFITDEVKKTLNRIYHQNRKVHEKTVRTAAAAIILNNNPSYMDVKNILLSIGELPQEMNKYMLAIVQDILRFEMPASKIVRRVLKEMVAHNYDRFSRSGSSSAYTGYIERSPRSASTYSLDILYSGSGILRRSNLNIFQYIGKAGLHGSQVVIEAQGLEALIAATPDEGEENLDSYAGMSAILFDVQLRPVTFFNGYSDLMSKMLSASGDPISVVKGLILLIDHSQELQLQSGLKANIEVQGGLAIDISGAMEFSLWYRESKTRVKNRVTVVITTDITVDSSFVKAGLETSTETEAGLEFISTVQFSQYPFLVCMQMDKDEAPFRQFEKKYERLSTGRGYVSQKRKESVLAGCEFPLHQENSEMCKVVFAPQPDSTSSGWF
The experiment in a line: Inhibition of MTP (unknown origin).

For a further data set, the system named is Rattus norvegicus. The data set is described as follows: Receptor occupancy in Sprague-Dawley rat brain at 10 mg/kg, sc by LC/MS analysis. The class given is functional.
Data set [5] has as its target T1, Neuropeptide Y receptor type 2. The experiment in a line: Antagonist activity at NPY-Y2 receptor in human KAN-TS cell membranes assessed as inhibition of PYY-stimulated [35S]GTPgammaS binding preincubated for 30 mins prior to [35S]GTPgammaS-treatment measured after 1 hr. The class given is functional. The note with it: read-out: pA2 (converted). (In general: GTPγS is a poorly hydrolysed GTP analogue; its binding reports G protein activation.)

The target in data set [6] is T2, Microsomal triglyceride transfer protein large subunit. The experiment in a line: Inhibition of MTP (unknown origin)-mediated triglyceride transfer from donor to acceptor vesicles preincubated for 5 mins followed by enzyme addition by [14C]-counting analysis.
Data set [7] addresses T3, Neuropeptide Y receptor type 2 (Homo sapiens) (UniProt P49146).
T3 sequence (whole entry): T1 sequence (P49146 whole entry)
The data set is described as §1.

On to `CCN(CC)C(=O)C(c1ccccc1)C1CCN(c2ccc(NC(=O)c3ccccc3-c3cccnc3)cc2F)CC1` (centres undefined), for which the remaining at 0.25 h was 73% in data set [1] and 98% in data set [2]. The 50% inhibitory concentration (IC50) (as a rule, the concentration needed to halve the response being measured) in data set [3] is 7 nM.

Consider `CCN(CC)C(=O)C(c1ccccc1)N1CCN(c2ccc(NC(=O)c3ccccc3-c3cccnc3)cc2F)CC1` (centres undefined), for which the remaining at 0.25 h in data set [1] was determined as 1.4%; in data set [2] it was 1.7%. For the same molecule, the IC50 in data set [4] amounted to 710 nM.

As to `CCNC(=O)C(c1ccccc1)C1CCN(c2ccc(NC(=O)Nc3c(C)noc3C)cc2F)CC1` (centres undefined), the Occ result with Rattus norvegicus was “inactive”. Further, the Kb in data set [5] was 3.98 nM. Besides, the IC50 in data set [6] was > 10000 nM.

With `CCNC(=O)C(c1ccccc1)C1CCN(c2ccc(NS(=O)(=O)c3ccccc3-c3ccccc3)cc2F)CC1` (centres undefined), the result in data set [7] was inactive.

Take `CCNC(=O)C(c1ccccc1)C1CCN(c2ccc(NC(=O)c3ccccc3-c3ccsc3)cc2F)CC1` (centres undefined): the IC50 in data set [3] was 70 nM.

In data set [3], `CCNC(=O)C(c1ccccc1)C1CCN(c2ccc(NC(=O)c3ccccc3-c3ccccc3)cc2F)CC1` (centres undefined) came in with an IC50 of 12 nM.

`CCNC(=O)C(c1ccccc1)C1CCN(c2ccc(NC(=O)c3c(C)noc3C)cc2F)CC1` (centres undefined) registered an IC50 in data set [3] of 476 nM.

As to `CCNC(=O)C(c1ccccc1)C1CCN(c2ccc(C(=O)Nc3ccccc3-c3ccccc3)cc2F)CC1` (centres undefined), in data set [3], the IC50 was 45 nM.

In the case of `CCNC(=O)C(c1ccccc1)C1CCN(c2ccc(NC(=O)Nc3ccccc3-c3ccccc3)cc2F)CC1` (centres undefined), in data set [3], the IC50 is 27 nM.

As for `CCNC(=O)C(c1ccccc1)C1CCN(c2ccc(NC(=O)c3ccccc3Br)cc2F)CC1` (centres undefined), the IC50 in data set [3] came to 665 nM.

`CCN(CC)C(=O)C(c1ccccc1)C1CCN(c2ccc(NC(=O)Nc3c(C)noc3C)cc2F)CC1` (centres undefined): the Occ entry in the data set with Rattus norvegicus is “inactive”. Moreover, the Kb in data set [5] is 2 nM. For the same molecule, the remaining at 0.25 h in data set [1] stood at 1.5%; in data set [2], 17%. Moreover, the half-maximal inhibitory concentration (IC50) in data set [3] is 12 nM; in data set [6], > 10000 nM.

`CCNC(=O)C(c1ccccc1)C1CCN(c2ccc(NC(=O)c3ccccc3-c3cccnc3)cc2F)CC1` (centres undefined): in data set [3], the IC50 came out at 24 nM.

In turn, `CCN(CC)C(=O)C(c1ccccc1)C1CCN(c2ccc(NC(=O)c3c(C)noc3C)cc2F)CC1` (centres undefined) displayed an Occ in the data set on Rattus norvegicus (route subcutaneous) of 50%. Also, the Kb in data set [5] is 31.6 nM. Further, the remaining at 0.25 h in data set [1] is 5.3%; in data set [2], 3.3%. Also, the IC50 in data set [3] is 37 nM; in data set [6], > 10000 nM.
